Laboratory results: article PMC4682634 (PLoS ONE, 2015)

Biological target: T1, endogenous BK channel (Rattus norvegicus, UniProt Q62976)
T1 construct: gene Kcnma1; endogenous BK in A7r5 smooth muscle cells
Assay: whole-cell patch-clamp, paxilline-sensitive current density in A7r5 cells
Format: cell-based

T1 sequence (Q62976 whole entry): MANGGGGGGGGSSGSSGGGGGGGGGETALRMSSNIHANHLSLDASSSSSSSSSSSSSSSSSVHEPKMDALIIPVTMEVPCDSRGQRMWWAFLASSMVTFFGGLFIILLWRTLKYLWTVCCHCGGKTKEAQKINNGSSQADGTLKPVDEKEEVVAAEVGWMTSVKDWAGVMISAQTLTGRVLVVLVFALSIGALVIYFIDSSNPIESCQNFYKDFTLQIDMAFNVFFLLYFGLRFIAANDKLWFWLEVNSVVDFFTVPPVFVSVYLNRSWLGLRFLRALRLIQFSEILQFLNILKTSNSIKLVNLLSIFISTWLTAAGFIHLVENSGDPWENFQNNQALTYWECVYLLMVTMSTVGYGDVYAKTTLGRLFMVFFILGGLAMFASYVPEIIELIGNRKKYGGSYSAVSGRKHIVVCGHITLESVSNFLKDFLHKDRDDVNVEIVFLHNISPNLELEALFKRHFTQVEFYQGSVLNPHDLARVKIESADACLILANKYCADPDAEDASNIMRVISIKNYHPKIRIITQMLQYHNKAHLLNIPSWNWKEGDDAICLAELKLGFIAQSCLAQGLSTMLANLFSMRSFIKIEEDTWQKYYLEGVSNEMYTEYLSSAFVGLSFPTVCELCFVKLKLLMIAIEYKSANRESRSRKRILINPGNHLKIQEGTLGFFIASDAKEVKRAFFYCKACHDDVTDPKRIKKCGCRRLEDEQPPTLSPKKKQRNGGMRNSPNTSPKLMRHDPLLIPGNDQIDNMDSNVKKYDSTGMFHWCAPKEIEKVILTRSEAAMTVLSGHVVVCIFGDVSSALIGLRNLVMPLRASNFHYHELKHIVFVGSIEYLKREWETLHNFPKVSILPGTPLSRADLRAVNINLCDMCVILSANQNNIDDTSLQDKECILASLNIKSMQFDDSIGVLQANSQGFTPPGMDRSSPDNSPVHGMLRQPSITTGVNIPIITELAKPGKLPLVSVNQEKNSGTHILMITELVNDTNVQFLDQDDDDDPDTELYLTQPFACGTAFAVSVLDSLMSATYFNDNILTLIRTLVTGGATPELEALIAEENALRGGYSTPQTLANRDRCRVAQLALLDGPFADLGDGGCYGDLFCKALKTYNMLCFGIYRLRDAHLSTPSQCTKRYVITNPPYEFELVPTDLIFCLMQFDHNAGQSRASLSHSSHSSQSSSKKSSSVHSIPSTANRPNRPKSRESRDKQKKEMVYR

COc1cc(/C=C/C(=O)CC(=O)/C=C/c2ccc(O)c(OC)c2)ccc1O [curcumin]
EC50: 6.93 ± 0.78 µM
